# Values quoted from earlier work in patent US8399018B2, “Controlled release ion channel modulator compositions and methods for the treatment of otic disorders” (priority 2008, dated 2013).
# How the values were obtained:
# [1] = tested on: tinnitus; settings: administered by IV
# [2] = tested on: V2-R; settings: infusion into the scala tympani
# [3] = tested on: guinea pigs; settings: chronic administration
smiles,measurement,setting,value
CCN(CC)CC(=O)Nc1c(C)cccc1C [Lidocaine],sufferers in whom noise associated with tinnitus is reduced or eliminated,[1],60-80%
Cc1ccccc1C(=O)Nc1ccc(C(=O)N2CCCC(N(C)C)c3ccccc32)cc1 (stereo not drawn) [OPC-31260],reduction of Meniere's disease symptoms,[2],marked reduction
"NC(=O)CC[C@@H]1NC(=O)[C@H](Cc2ccccc2)NC(=O)[C@H](Cc2ccc(O)cc2)NC(=O)[C@@H](N)CSSC[C@@H](C(=O)N2CCC[C@H]2C(=O)N[C@@H](CCCN=C(N)N)C(=O)NCC(N)=O)NC(=O)[C@H](CC(N)=O)NC1=O [VP, vasopressin]",induction of endolymphatic hydrops,[3],induces endolymphatic hydrops
